The record followed here is US11466006B2, “Dual selective PI3 delta and gamma kinase inhibitors” (Rhizen Pharmaceuticals SA, priority 2013, dated 2022).

In experiment [1] the test system is pAKT. Nature of the experiment: Inhibition of AKT phosphorylation in B-lymphoma cell lines. It is filed as cell-based. Conditions: LY-1, LY-10, Daudi, JEKO, REC and MAVER cells; 48 hours. How it is done: LY-1, LY-10, Daudi, JEKO, REC and MAVER cells were incubated with desired concentrations of [compound A1] for 48 hours. Cells were lysed and pAKT was determined by Western Blotting. Bands were quantified using ImageJ and normalized to actin.

In experiment [2] the test system is Female Wistar rats. Nature of the experiment: Lipopolysaccharide-induced rat air pouch model of inflammation. It is filed as in vivo. The settings on record: Neutrophil, oral, 1 h before LPS, pouch fluid at 6 h, read-out: ED50, reduction of neutrophil migration into the rat air pouch. On the procedure: Female Wistar rats (175-200 g) were acclimatized for seven days prior to the start of the experiment Animals were randomly distributed to various groups based on their body weights Animals were anaesthetised with ether and subcutaneous air pouches were made by injecting 20 ml of sterile air under the skin in the intra-scapular area (day 0) and maintained with a second 10-ml injection of sterile-filtered air on day 4. On day 6, oral treatment was commenced 1 h prior to induction of inflammation by s.c. injection of LPS solution on day 6. A volume of 5-ml of LPS solution dissolved in sterile saline (100 μg/kg) was injected into each pouch. Samples of pouch fluid were taken at 6 h after administration of LPS by flushing the pouch with 5 ml of sterile saline and withdrawing 4 ml of fluid. The numbers of leukocytes present in pouch fluid was determined microscopically using a haemocytometer. Differential cell content was determined by microscopic examination of fluid smears stained with Diff-Quik.

Experiment [3] concerns the target T1, Pi3K β (Homo sapiens, UniProt P42338).
T1 construct: purchased Millipore (assay kit)
Nature of the experiment: Fluorescent (HTRF) determination of PI3 kinase enzyme activity, beta isoform. Type of experiment: biochemical. Conditions: Table 1, HTRF. From the text: (§1) Phosphoinositide 3 kinases (PI3K) belong to a class of lipid kinases that play a critical role in the regulation of several key cellular processes. The PI3K are capable of phosphorylating the 3-hydroxy position of phosphoinositols thereby generating second messengers involved in downstream signalling events. The homogenous time resolved fluorescence (HTRF) assay allows detection of 3,4,5-triphosphate (PIP3) formed as a result of phosphorylation of phosphotidylinositol 4,5-biphosphate (PIP2) by PI3K isoforms such as α, β, γ or δ.
(§2) PI3K isoform activity for α, β, γ or δ was determined using a PI3K human HTRF™ Assay Kit (Millipore, Billerica, Mass.) with modifications. All incubations were carried out at room temperature. Briefly, 0.5 μl of 40× inhibitor (in 100% DMSO) or 100% DMSO were added to each well of a 384-well white plate (Greiner Bio-One, Monroe, N.C.) containing 14.5 μl 1× reaction buffer /PIP2 (10 mM MgCl2, 5 mM DTT, 1.38 μM PIP2) mix with or without enzyme, followed by 5 μl/well of 400 μM ATP and incubated for an additional 30 minutes. Reaction was terminated by adding 5 μl/well stop solution (Millipore, Billerica, Mass.). […] HRTF ratio was measured on a microplate reader (BMG Labtech., Germany) at an excitation wavelength of 337 nm and emission wavelengths of 665 and 615 nm with an integration time of 400 msec counting delay of 50 msec.
(In general: TR-FRET usually uses a lanthanide donor and a delayed reading to cut background.)

Experiment [4] deals with T2, Pi3K α (Homo sapiens, UniProt P42336).
T2 construct: purchased Millipore (assay kit)
T2 sequence (P42336 whole entry): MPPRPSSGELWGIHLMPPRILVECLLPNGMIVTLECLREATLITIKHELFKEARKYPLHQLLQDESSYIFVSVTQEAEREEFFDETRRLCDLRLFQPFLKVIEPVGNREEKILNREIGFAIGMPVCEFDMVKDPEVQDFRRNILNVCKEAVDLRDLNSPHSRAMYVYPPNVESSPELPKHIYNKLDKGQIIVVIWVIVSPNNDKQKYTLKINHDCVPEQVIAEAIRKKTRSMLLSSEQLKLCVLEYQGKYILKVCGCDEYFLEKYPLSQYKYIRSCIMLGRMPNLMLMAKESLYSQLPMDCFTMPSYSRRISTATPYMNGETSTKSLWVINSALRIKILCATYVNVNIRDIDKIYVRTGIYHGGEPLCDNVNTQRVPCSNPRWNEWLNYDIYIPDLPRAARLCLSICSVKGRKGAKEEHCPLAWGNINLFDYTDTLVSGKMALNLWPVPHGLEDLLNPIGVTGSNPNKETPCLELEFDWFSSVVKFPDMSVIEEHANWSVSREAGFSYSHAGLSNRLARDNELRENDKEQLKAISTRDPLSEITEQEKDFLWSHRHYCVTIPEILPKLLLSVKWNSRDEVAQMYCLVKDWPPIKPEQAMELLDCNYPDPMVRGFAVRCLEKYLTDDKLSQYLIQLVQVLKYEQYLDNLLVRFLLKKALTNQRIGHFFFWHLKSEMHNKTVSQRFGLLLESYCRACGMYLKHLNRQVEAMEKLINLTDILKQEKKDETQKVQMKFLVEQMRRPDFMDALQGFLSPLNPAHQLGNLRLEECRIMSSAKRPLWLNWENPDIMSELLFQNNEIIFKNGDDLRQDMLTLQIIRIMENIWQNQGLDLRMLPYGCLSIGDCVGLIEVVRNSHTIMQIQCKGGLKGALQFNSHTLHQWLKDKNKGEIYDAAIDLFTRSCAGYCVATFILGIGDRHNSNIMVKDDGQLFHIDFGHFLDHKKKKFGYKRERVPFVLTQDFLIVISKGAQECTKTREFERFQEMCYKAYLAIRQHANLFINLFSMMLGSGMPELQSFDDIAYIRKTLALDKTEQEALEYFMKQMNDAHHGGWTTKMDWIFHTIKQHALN
T2 sequence (P27986 whole entry partner): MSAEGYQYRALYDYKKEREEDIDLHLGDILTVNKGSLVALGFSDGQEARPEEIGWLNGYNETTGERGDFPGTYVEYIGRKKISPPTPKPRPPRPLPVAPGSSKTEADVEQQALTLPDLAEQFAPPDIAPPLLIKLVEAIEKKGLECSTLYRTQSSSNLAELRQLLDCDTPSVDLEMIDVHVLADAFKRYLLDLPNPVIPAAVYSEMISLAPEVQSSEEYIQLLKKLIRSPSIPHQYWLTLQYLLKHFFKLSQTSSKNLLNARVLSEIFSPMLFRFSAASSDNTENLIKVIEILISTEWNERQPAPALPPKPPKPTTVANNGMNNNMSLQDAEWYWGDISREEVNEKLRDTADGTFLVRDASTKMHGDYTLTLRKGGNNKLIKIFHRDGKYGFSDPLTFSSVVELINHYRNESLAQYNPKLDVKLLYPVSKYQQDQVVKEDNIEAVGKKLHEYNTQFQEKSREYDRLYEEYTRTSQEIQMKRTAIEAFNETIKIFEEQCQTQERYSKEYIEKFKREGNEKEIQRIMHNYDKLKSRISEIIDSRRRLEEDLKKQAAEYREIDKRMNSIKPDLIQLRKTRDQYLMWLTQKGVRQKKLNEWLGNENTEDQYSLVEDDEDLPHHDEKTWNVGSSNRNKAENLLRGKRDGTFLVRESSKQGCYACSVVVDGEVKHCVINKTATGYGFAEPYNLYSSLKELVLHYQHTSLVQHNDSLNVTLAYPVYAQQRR
Put plainly: Fluorescent (HTRF) determination of PI3 kinase enzyme activity, alpha isoform. It is filed as biochemical. Conditions: Table 1, HTRF.
From the text: as §1, §2

Experiment [5] concerns caspase-3 activity. Nature of the experiment: Apoptosis in leukemic cell lines (in-situ Caspase 3 kit). It is filed as cell-based. The settings on record: MOLT-4, Jurkat, CCRF-CEM, Hut-78 & HuT-102; 24 hrs. How it is done: Apoptosis in leukemic cells was determined using an in-situ Caspase 3 kit (Millipore, US) as outlined below: • Seed leukemic cells—at a density of 1×10^6 cells/well in a 6 well plate • Add test compound/DMSO at desired concentrations • Incubate the plate for 24 hrs at 37° C. in 5% CO2 incubator • Collect cells in a 2 ml centrifuge tube • Add 1.6 μL of freshly prepared 5× FLICA reagent and mix cells by slightly flicking the tubes • Incubate tubes for 1 hour at 37° C. under 5% CO2 • Add 2 ml of 1× wash buffer to each tube and mix • Centrifuge cells at <400× g for 5 minutes at room temperature. • Carefully remove and discard supernatant, and gently vortex cell pellet to disrupt any cell-to-cell clumping. • Resuspend cell pellet in 300 ul of 1× wash buffer • Place 100 μL of each cell suspension into each of two wells of a black microtiter plate. Avoid creation of bubbles. • Read […] of each microwell using an excitation wavelength of 490 nm and an emission wavelength of 520 nm • Percent increase in caspase-3 activity manifested by an increase in fluorescence compared to the control blank is to be calculated.

Experiment [6] has as its target T3, Pi3K γ (Homo sapiens, UniProt P48736). Put plainly: Fluorescent (HTRF) determination of PI3 kinase enzyme activity, gamma isoform. Type of experiment: biochemical. More on the design: purchased Millipore (assay kit). Conditions: Table 1, HTRF; read-out: IC50 (nM) Pi3K γ.
From the text: as §1, §2

The target of experiment [7] is T3, Pi3K γ. Put plainly: fMLP induced CD63 expression in basophils from human whole blood. The settings on record: n=10, read-out: IC50 for fMLP (PI3K γ), CD63 positive basophils. It is filed as cell-based. On the procedure:
PI3K δ and γ signalling in basophils manifested by an alteration of anti-FcεR1 or fMLP induced CD63 expression is a useful pharmacodynamic marker determined using the Flow2CAST® kit (Buhlmann Laboratories, Switzerland). Briefly, it involves the following steps: • Mix the anti-coagulated blood sample by inverting the venipuncture tube several times; • Prepare fresh and pyrogen-free 3.5 ml polypropylene or polystyrene tubes suitable for Flow Cytometry measurements; • Add 49 μl of patient's whole blood to each tube; • Add 1 μl of 10% DMSO (background) or compound (10% DMSO) to the assigned tubes and mix gently. Incubate at room temperature for 15 minutes; • Pipet 50 μl of the Stimulation buffer (background) or anti-FcεRI Ab or or fMLP to each tube; • Add 100 μl of Stimulation Buffer to each tube; • Mix gently. Add 20 μl Staining Reagent (1:1 mix of FITC-CD63 and PE-CCR3) to each tube; • Mix gently, cover the tubes and incubate for 15 minutes at 37° C. in a water bath. […]
Percent CD63 positive cells within the gated basophil population were determined in different treatment groups and normalized to vehicle control.

Structures are written as SMILES.

T3 sequence (P48736 whole entry, canonical isoform): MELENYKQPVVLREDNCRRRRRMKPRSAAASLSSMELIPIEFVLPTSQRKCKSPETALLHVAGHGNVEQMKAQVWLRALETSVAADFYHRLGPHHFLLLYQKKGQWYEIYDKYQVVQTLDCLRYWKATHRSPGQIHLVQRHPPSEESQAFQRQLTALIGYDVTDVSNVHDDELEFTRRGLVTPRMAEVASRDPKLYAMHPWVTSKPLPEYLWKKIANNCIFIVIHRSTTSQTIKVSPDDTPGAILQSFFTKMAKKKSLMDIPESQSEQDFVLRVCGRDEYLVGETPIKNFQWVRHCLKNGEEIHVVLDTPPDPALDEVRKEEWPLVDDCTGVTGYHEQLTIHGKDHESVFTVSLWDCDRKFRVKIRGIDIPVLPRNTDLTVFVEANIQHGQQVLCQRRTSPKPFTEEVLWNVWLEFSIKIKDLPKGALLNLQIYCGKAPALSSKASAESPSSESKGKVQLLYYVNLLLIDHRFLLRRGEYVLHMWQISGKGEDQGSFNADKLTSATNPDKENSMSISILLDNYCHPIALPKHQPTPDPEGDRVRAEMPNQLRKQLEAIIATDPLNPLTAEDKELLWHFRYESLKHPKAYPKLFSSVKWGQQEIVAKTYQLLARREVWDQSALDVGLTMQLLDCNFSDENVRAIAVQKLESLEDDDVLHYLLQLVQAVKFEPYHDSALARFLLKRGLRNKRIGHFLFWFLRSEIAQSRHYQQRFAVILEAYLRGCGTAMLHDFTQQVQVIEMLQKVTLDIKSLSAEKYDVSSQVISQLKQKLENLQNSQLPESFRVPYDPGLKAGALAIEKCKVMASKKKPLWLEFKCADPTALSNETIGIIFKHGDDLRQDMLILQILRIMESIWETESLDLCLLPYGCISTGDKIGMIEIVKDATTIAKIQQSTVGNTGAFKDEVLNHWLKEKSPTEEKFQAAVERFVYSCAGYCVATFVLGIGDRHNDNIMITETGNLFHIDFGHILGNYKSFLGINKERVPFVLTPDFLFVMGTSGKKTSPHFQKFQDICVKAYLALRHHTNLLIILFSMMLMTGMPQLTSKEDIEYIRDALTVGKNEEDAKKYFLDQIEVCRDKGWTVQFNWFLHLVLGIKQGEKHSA
T1 sequence (P42338 whole entry): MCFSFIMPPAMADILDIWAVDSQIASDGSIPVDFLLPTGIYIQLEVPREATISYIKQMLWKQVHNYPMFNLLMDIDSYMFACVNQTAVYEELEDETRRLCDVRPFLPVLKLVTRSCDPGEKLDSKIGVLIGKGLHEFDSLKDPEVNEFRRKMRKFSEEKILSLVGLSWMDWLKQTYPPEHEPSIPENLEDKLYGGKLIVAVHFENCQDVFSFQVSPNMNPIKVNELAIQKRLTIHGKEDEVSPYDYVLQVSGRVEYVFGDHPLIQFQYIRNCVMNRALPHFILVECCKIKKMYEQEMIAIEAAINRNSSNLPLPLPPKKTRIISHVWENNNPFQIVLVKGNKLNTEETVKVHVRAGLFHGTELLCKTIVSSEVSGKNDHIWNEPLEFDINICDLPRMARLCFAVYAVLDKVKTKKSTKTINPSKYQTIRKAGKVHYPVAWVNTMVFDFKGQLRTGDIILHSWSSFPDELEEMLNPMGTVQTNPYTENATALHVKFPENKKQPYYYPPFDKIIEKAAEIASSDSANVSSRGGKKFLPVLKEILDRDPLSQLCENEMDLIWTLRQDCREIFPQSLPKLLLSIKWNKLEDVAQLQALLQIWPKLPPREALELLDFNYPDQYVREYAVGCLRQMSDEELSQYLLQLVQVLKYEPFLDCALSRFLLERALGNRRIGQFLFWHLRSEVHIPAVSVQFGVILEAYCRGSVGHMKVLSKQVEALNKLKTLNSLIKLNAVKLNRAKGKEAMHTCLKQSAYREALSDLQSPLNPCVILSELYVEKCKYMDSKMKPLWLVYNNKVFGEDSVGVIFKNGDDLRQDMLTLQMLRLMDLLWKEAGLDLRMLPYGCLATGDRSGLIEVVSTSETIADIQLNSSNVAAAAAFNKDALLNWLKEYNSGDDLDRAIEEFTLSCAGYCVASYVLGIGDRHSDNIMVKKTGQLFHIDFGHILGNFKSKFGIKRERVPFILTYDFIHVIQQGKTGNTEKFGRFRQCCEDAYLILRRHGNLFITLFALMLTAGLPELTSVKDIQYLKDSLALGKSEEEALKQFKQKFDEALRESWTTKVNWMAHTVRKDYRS
T1 sequence (P27986 whole entry partner): as the sequence (P27986 whole entry partner) above

As for `CC[C@H](Nc1ncnc2[nH]cnc12)c1oc2ccccc2c(=O)c1-c1cccc(F)c1` [Compound A1, (S)-2-(1-(9H-purin-6-ylamino)propyl)-3-(3-fluorophenyl)-4H-chromen-4-one], the EC50 (commonly the concentration needed to bring the measured effect to its halfway point) in experiment [1] lay in the range of 20 to 200 nM. For the same compound, the ED50 in experiment [2] worked out at 2.6 mg/kg. Also, the IC50 (as a rule, the point on the concentration scale where inhibition reaches its midpoint) in experiment [3] is above 4000 nM; in experiment [4] it was above 10000 nM; in experiment [6], 24.1 nM; in experiment [7] it was below 40 nM. For the same compound, in experiment [5], the caspase-3 activity entry is “dose-dependent induction”.
